Results taken from patent publication US8247211B2, “Glycopeptide antibiotics” (American Cyanamid Company, priority 2001, dated 2012).
Values after ≈ are worked out from the molar mass of the structure shown.

Columns and labels:
Test in all cases: In vitro antibacterial evaluation: minimum inhibitory concentration (MIC), broth dilution method
Format in all cases: cell-based
[1] = system: Enterococcus sp.
Experimental: (§1) The minimum inhibitory concentration (MIC), the lowest concentration of the antibiotic which inhibits growth of the test organism, is determined by the broth dilution method using Muller-Hinton II […] (Baltimore Biological Laboratories) following the recommendations of the National Committee for Clinical Laboratory Standards [Methods for dilution antimicrobial susceptibility tests for bacteria that grow aerobically, approved standard M7-A2, National Committee for Clinical Laboratory Standards, Villanova, Pa].
(§2) An inoculum level of 5×10^5 CFU/mL, and a range of antibiotic concentrations (64-0.06 μg/mL) is used. […] The test organisms include a spectrum of Gram-positive bacteria comprised of Staphylococcus sp., Streptococcus sp. and Enterococcus sp. These organisms include recent clinical isolates that are resistant to methicillin, penicillin and/or vancomycin.

[2] = system: Staphylococcus sp.; details: broth dilution, 18 hours at 35° C.
Experimental: as §1, §2

[3] = system: Escherichia coli; details: strain GC 4560
Experimental: as §1, §2

[4] = system: Streptococcus sp.
Experimental: as §1, §2

`CC(c1ccccc1)C1NC(=O)CNC(=O)C(CO)NC(=O)C(C(O)C2CN(Cc3ccccc3)C(=NCc3ccccc3)N2C2OC(CO)C(O)C(O)C2O)NC(=O)C(C(O)C2CN(Cc3ccccc3)C(=NCc3ccccc3)N2Cc2ccccc2)NC(=O)C(Cc2ccc(OC3OC(CO)C(OC4OC5COC6(OC5C(O)C4O)C4CC5CC(C4)CC6C5)C(O)C3O)cc2)NC1=O` (stereo not drawn) [Example 79, Cyclo[glycyl-β-methylphenylalanyl-O-[4-O-[4,6-O-(2-adamantylidene)hexopyranosyl]hexopyranosyl]tyrosyl-3-[1,3-dibenzyl-2-(benzylimino)imidazolidin-4-yl]seryl-3-[1-benzyl-2-(benzylimino)-3-hexopyranosylimidazolidin-4-yl]serylseryl]] was tested, and the “MIC Enterococcus faecalis (GC 2242)” value ([1]; Enterococcus faecalis (GC 2242), broth dilution, 18 hours at 35° C.) was 16 µg/mL (≈ 8.52 µM), the “MIC Enterococcus faecalis (GC 2691)” value ([1]; Enterococcus faecalis (GC 2691), broth dilution, 18 hours at 35° C.) was 8 µg/mL (≈ 4.26 µM) and the “MIC Enterococcus faecalis (GC 3059)” value ([1]; Enterococcus faecalis (GC 3059), broth dilution, 18 hours at 35° C.) was 32 µg/mL (≈ 17 µM). The “MIC Enterococcus faecalis (ATCC 29212)” value ([1]; strain ATCC 29212) was 8 µg/mL (≈ 4.26 µM), the “MIC Enterococcus faecalis (GC 2242)” value ([1]; strain GC 2242) was 16 µg/mL (≈ 8.52 µM) and the “MIC Enterococcus faecium (GC 2243)” value ([1]; strain GC 2243) was 8 µg/mL (≈ 4.26 µM). The “MIC Enterococcus faecalis (GC 2691)” value ([1]; strain GC 2691) was 8 µg/mL (≈ 4.26 µM), the “MIC Enterococcus faecalis (GC 3059)” value ([1]; strain GC 3059) was 32 µg/mL (≈ 17 µM) and the “MIC Enterococcus faecalis (GC 4552)” value ([1]; strain GC 4552) was 32 µg/mL (≈ 17 µM). For the same molecule, the “MIC Enterococcus faecalis (GC 4553)” value ([1]; strain GC 4553) was 4 µg/mL (≈ 2.13 µM), the “MIC Enterococcus faecalis (GC 4554)” value ([1]; strain GC 4554) was 16 µg/mL (≈ 8.52 µM) and the “MIC Enterococcus faecium (GC 4556)” value ([1]; strain GC 4556) was 32 µg/mL (≈ 17 µM). The “MIC Enterococcus faecium (GC 4557)” value ([1]; strain GC 4557) was 4 µg/mL (≈ 2.13 µM), the “MIC Enterococcus avium (GC 4558)” value ([1]; strain GC 4558) was 2 µg/mL (≈ 1.06 µM) and the “MIC Enterococcus faecalis (GC 6189)” value ([1]; strain GC 6189) was 8 µg/mL (≈ 4.26 µM). For the same molecule, the “MIC Coagulase Negative Staphylococcus (GC 4547)” value [2] was 4 µg/mL (≈ 2.13 µM), the “MIC Coagulase Negative Staphylococcus (GC 4548)” value [2] was 4 µg/mL (≈ 2.13 µM) and the “MIC Coagulase Negative Staphylococcus (GC 4549)” value [2] was 2 µg/mL (≈ 1.06 µM). The “MIC Coagulase Negative Staphylococcus (GC 4551)” value [2] was 4 µg/mL (≈ 2.13 µM), the “MIC Coagulase Negative Staphylococcus (GC 6257)” value [2] was 4 µg/mL (≈ 2.13 µM) and the “MIC Staphylococcus aureus (ATCC 29213)” value [2] was 4 µg/mL (≈ 2.13 µM). For the same molecule, the “MIC Staphylococcus aureus (GC 1131)” value [2] was 8 µg/mL (≈ 4.26 µM), the “MIC Staphylococcus aureus (GC 3051)” value [2] was 4 µg/mL (≈ 2.13 µM) and the “MIC Staphylococcus aureus (GC 3053)” value [2] was 4 µg/mL (≈ 2.13 µM). For the same molecule, the “MIC Staphylococcus aureus (GC 4541)” value [2] was 4 µg/mL (≈ 2.13 µM), the “MIC Staphylococcus aureus (GC 4542)” value [2] was 4 µg/mL (≈ 2.13 µM) and the “MIC Staphylococcus aureus (GC 4544)” value [2] was 8 µg/mL (≈ 4.26 µM). The “MIC Staphylococcus aureus (GC 4545)” value [2] was 4 µg/mL (≈ 2.13 µM), the “MIC Staphylococcus aureus SMITH (GC 4543)” value [2] was 4 µg/mL (≈ 2.13 µM) and the “MIC Staphylococcus haemolyticus (GC 4546)” value [2] was 4 µg/mL (≈ 2.13 µM). For the same molecule, the “MIC Staphylococcus aureus-SMITH (GC 4543)” value ([2]; strain SMITH GC 4543) was 4 µg/mL (≈ 2.13 µM), the “MIC Escherichia coli (GC 4560)” value [3] was 2 µg/mL (≈ 1.06 µM) and the “MIC Streptococcus agalactiae (GC 4564)” value ([4]; Streptococcus agalactiae (GC 4564), broth dilution, 18 hours at 35° C.) was 4 µg/mL (≈ 2.13 µM). For the same molecule, the “MIC Streptococcus pneumoniae (ATCC 6301)” value ([4]; Streptococcus pneumoniae (ATCC 6301), broth dilution, 18 hours at 35° C.) was 4 µg/mL (≈ 2.13 µM), the “MIC Streptococcus pneumoniae (GC 1894)” value ([4]; Streptococcus pneumoniae (GC 1894), broth dilution, 18 hours at 35° C.) was 8 µg/mL (≈ 4.26 µM) and the “MIC Streptococcus pneumoniae (GC 4565)” value ([4]; Streptococcus pneumoniae (GC 4565), broth dilution, 18 hours at 35° C.) was 8 µg/mL (≈ 4.26 µM). The “MIC Streptococcus pyogenes (GC 4563)” value ([4]; Streptococcus pyogenes (GC 4563), broth dilution, 18 hours at 35° C.) was 4 µg/mL (≈ 2.13 µM), the “MIC Streptococcus pneumoniae (ATCC 6301)” value ([4]; strain ATCC 6301) was 4 µg/mL (≈ 2.13 µM) and the “MIC Streptococcus pneumoniae (GC 1894)” value ([4]; strain GC 1894) was 8 µg/mL (≈ 4.26 µM). For the same molecule, the “MIC Streptococcus pyogenes (GC 4563)” value ([4]; strain GC 4563) was 4 µg/mL (≈ 2.13 µM), the “MIC Streptococcus agalactiae (GC 4564)” value ([4]; strain GC 4564) was 4 µg/mL (≈ 2.13 µM) and the “MIC Streptococcus pneumoniae (GC 4565)” value ([4]; strain GC 4565) was 8 µg/mL (≈ 4.26 µM).
